These results are taken from PMC4072317 (Food chemistry, 2013).

Data set [1] has as its system human intestinal Caco-2 cell membranes. The note with it: ref Yi et al., 2006; cited from earlier work.
The conditions of data set [2]: for ACNs in I.E. as % of input: fed state (high fat meal), ileal efflux over 4 h, mean ± range, two experiments.
The conditions of data set [3]: for hourly bioaccessibility as a percentage of anthocyanin input: fasted state, 4 h.
The test system of data set [4] is mice with diet-induced diabetes. The settings on record: orally administered, ref Grace et al., 2009; cited from earlier work.

Each structure is given as a SMILES string. Read-outs that look alike come from different tables or passages of the source.

For the compound `OC[C@H]1O[C@@H](Oc2cc3c(O)cc(O)cc3[o+]c2-c2cc(O)c(O)c(O)c2)[C@H](O)[C@@H](O)[C@@H]1O` [dp-3-Glucoside, delphinidin-3-glucoside], the “transport efficiency in Caco-2 cells” value in data set [1] is “lower transport efficiency”.
As to `COc1cc(-c2[o+]c3cc(O)cc(O)c3cc2O[C@@H]2O[C@H](COC(C)=O)[C@H](O)[C@H](O)[C@H]2O)cc(OC)c1O` [mal-3-(6″-Acetoyl)-galactoside], the “ACNs in I.E. as % of input” value in data set [2] is reported as 2.4 ± 0.9 % of input.
As for `COc1cc(-c2[o+]c3cc(O)cc(O)c3cc2O[C@@H]2OC[C@H](O)[C@H](O)[C@H]2O)cc(OC)c1O` [mal-3-Arabinoside, malvidin-3-arabinoside], the “ACNs in I.E. as % of input” value in data set [2] is on record as 2.6 ± 0.4 % of input. The “total bioaccessibility in the fasted state relative to the fed state” value in data set [3] (fasted vs fed (high fat meal), Tables 1 and 2) is listed as “twice as bioaccessible”.
Consider `COc1cc(-c2[o+]c3cc(O)cc(O)c3cc2O[C@@H]2O[C@H](CO)[C@H](O)[C@H](O)[C@H]2O)cc(OC)c1O` [mal-3-Galactoside], for which the “ACNs in I.E. as % of input” value in data set [2] is reported as 2.6 ± 0.8 % of input.
Take `COc1cc(-c2[o+]c3cc(O)cc(O)c3cc2O[C@@H]2O[C@H](CO)[C@@H](O)[C@H](O)[C@H]2O)cc(OC)c1O` [mal-3-Glucoside, malvidin-3-glucoside]: the hypoglycemic effect entry in data set [4] was “hypoglycemic”. Further, the “ACNs in I.E. as % of input” value in data set [2] was 3.2 ± 0.1 % of input. In addition, the “hourly bioaccessibility as a percentage of anthocyanin input” value in data set [3] (ileal samples) was 0.3%; in data set [3] (jejunum) it was 0.8%. The “transport efficiency in Caco-2 cells” value in data set [1] is reported as “highest transport efficiency”.
`COc1cc(-c2[o+]c3cc(O)cc(O)c3cc2O[C@@H]2OC[C@H](O)[C@H](O)[C@H]2O)cc(O)c1O.[Cl-]` [pt-3-Arabinoside, petunidin-3-arabinoside]: the “total bioaccessibility in the fed state relative to the fasted state” value in data set [2] (fed (high fat meal) vs fasted, Tables 1 and 2) is recorded as “twice as bioaccessible”. Moreover, the “ACNs in I.E. as % of input” value in data set [2] is 4.5 ± 1.5 % of input.
